In assay [1] the test system is Canis familiaris. In words: Mean percent decrease in mean blood pressure was determined at the dose of 15 umol/kg (2 minutes after injection) in mongrel dogs. The class given is functional, Canis lupus familiaris.
Assay [2] deals with Canis familiaris. Briefly: Mean percent decrease in mean blood pressure was determined at the dose of 15 umol/kg in mongrel dogs. The assay is classed as functional, Canis lupus familiaris.

In the case of `COc1ccc(C[C@@H]2CCC[C@@H]2N)cc1OC`, the entries for the “Decrease in blood pressure” value in assay [1] and in assay [2] were 37.9% and 30%, respectively.

Take `COc1ccc(C[C@@H]2CCC[C@H]2N)cc1OC`: the “Decrease in blood pressure” value is recorded as 7.5% in assay [1] and 25.1% in assay [2].

These data come from ChEMBL document CHEMBL1122017, “Synthesis and peripheral cardiovascular action of cis- and trans-2-(3,4-dimethoxybenzyl)cyclopentylamine hydrochlorides” (1982).
